Measured values from paper PMC9658513, “Discovery of Compounds That Selectively Repress the Amyloidogenic Processing of the Amyloid Precursor Protein: Design, Synthesis and Pharmacological Evaluation of Diphenylpyrazoles” (International Journal of Molecular Sciences, 2022).

Test system: sAPPα
Assay: sAPPα secretion (MSD sAPPα/sAPPβ Multiplex Kit)
Assay type: cell-based, human
Settings: concentration increasing sAPPα 1.5-fold vs untreated control
Method: A selection of compounds with several selected activities was performed including sAPPα and sAPPβ, which were further explored. […] The decrease in Aβ could result from a decrease in either β- or γ-secretase cleavage or an increase in the α-secretase cleavage of APP. Thus, medium concentrations of sAPPβ and sAPPα, which are the β- and α-secretase extramembrane shed APP fragments, were determined after cell drug treatments.
The human neuroblastoma cell line SY5Y-APP^695WT was maintained in Dulbecco’s modified Eagle medium (DMEM, high glucose, pyruvate—GIBCO, Life Technologies, Carlsbad, CA, USA) supplemented with 10% fetal bovine serum, 2 mM L-glutamine, 1 mM non-essential amino acids and penicillin/streptomycin (GIBCO, Life Technologies, Carlsbad, CA, USA) at 37 °C in a 5% CO2 humidified incubator [36]. For compound treatment, a 10 mM stock solution was diluted in freshly supplemented DMEM medium to obtain the precise final concentration of the drug. Cells were plated at a density of 5 × 10^5 cells per well into 12-well plates and cultured with 1 mL supplemented DMEM cell medium for 24 h before compound exposure. The following day, the cell medium was replaced with fresh medium containing the compounds diluted at the indicated concentrations. Cells were treated for 24 h. At the end of the treatments, the cell medium was collected and kept at −80 °C until use, cells were rinsed once with PBS and extracted in 100 µL of Laemmli buffer (10 mM Tris, 20% glycerol, and 2% sodium dodecyl sulfate) using a cell-scraper. […] Total protein concentration was determined using the Pierce BCA Protein Assay Kit (Thermo Scientific, Waltham, MA, USA) according to the manufacturer’s instructions. […]
Aβ1–40/Aβ1–42 peptides, Aβx–38/Aβx–40/Aβx–42, and sAPPα/sAPPβ concentrations in pg/mL were determined, respectively, using amyloid-beta 40 and 42 Human ELISA Kits (Invitrogen), the V-PLEX Plus Aβ Peptide Panel 1 (4G8) Kit (Meso Scale Diagnostics, MSD R©, Rockville, MD, USA), and the sAPPα/sAPPβ Multiplex Kit (Meso Scale Diagnostics, MSD R©, Rockville, MD, USA) according to the manufacturer’s instructions.

“N′-[[4-[4-[3-(Dimethylamino)propyl]-3-[4-[3-(dimethylamino)propyl]phenyl] Pyrazol-1-yl]phenyl]methyl]-N,N,N′-trimethyl-propane-1,3-diamine [Compound 33]” was tested, and the “sAPPα C1.5” value was >10 µM.
